Test system: candidate biomarker gene transcripts (Ccl21, Col18a1, Cxcl12, Cxcl13, Dmp1, Frzb) in rat Hy/Su lungs
Assay: Candidate biomarker mRNA levels (QPCR) in lung in the hypoxia/Sugen rat model of PH following treatment with Imatinib
Type: in vivo
Procedure: Sugen (250 mg; SU5416; Sigma-Aldrich®) was dissolved in vehicle (12.5 ml; 0.5% (wt/vol) carboxyl methylcellulose sodium, 0.9% (wt/vol) NaCl, 0.4% (vol/vol) polysorbate, 0.9% (vol/vol) benzyl alcohol in deionized water), sonicated for 15 min and then vortexed. On day 0, animals were anaesthetized, weighed and received Sugen 20 mg/kg by sub-cutaneous injection. […] Control animals remained in room air (21% O2) to serve as normoxic controls for the study. After 2 weeks, all animals were removed from the hypoxia chamber. At week 4, the animals were subjected to echocardiographic measurements under sevoflurane anaesthesia and monitored closely until fully recovered. Animals underwent RV catheterization for measurement of right ventricular pressure (RVP) under a mixture of ketamin and medetomidine anaesthesia. Following euthanasia by Schedule 1, the left lobe of the lung was removed, inflated and fixed in 10% formalin and embedded in paraffin for histological analysis. Lobes of the right lung were snap frozen for transcriptional profiling.
Frozen rat lung samples, collected in TT2 tissue bags (K Bioscience® Cat #520021) were crushed using the Covaris CryoPrep CP02. Total RNA from the crushed lung samples was extracted by RNeasy Mini kit according to the manufacturer's protocol (Qiagen™). Genomic DNA was removed by treatment with DNase I (Turbo DNase kit, Invitrogen). The exact quantification of RNA was determined with a NanoDrop ND-1000 spectrophotometer. RNA quality was assessed by analyzing 18S and 28S rRNAs by microfluidics-based electrophoresis on a 2100 Bioanalyzer (Agilent Technologies, Santa Clara, Calif.).
All animal procedures were conducted as described above.
In this study, following administration of an initial dose of Sugen on day 0 and a period of 14 days in a hypoxia chamber following, rats were administered 100 mg/kg of Imatinib or vehicle control daily for a further two weeks.
Following euthanasia by Schedule 1, the left lobe of the lung was removed, inflated and fixed in 10% formalin and embedded in paraffin for histological analysis, by airway inflation. Tissue sections (3 μm) were stained with antibodies against von Willebrand factor (vWF) and α-smooth muscle actin (α-SMA). Slides were examined using a DMLB and confocal microscope, digital camera, and IM50 imaging software (Leica Microsystems, London, UK). Small pulmonary vessels (10-100 μm diameter indicated by vWF staining) were assessed for degrees of circumferential α-SMA-positive staining indicative of muscularisation. Lobes of the right lung were snap frozen for candidate biomarker mRNA expression measurements. Total RNA was extracted and underwent quality control as mentioned in section above.
cDNA was synthesised using the High Capacity RNA-to-cDNA Kit (Invitrogen) according to the kit manufacturer's protocol. QPCR was performed on an ABI Prism 7900HT sequence detection system (Applied Biosystems, USA), using TaqMan Universal PCR Master Mix (Applied Biosystems). Taqman assays were purchased from Applied Biosystems®. Relative expression was normalised to a combination of 10 different housekeeping genes. Data were analyzed using the SDS RQ Manager, software (Applied Biosystems, version 2.4). Normalised gene expression values for each gene (2^−Δct) were plotted and analysed using a two-way ANOVA in GraphPad Prism 6.02.

[1] = rat Hy/Su lungs, Imatinib 100 mg/kg daily for two weeks vs vehicle, QPCR

Cc1ccc(NC(=O)c2ccc(CN3CCN(C)CC3)cc2)cc1Nc1nccc(-c2cccnc2)n1 [Imatinib]
CCL21 mRNA expression levels in lung samples (day 28, imatinib group vs vehicle treated animals (increased vs naïve controls)): decrease
Ccl21 gene transcript in lung [1]: down-regulated
Col18a1 gene transcript in lung [1]: down-regulated
Cxcl12 gene transcript in lung [1]: down-regulated
Cxcl13 gene transcript in lung [1]: down-regulated
Dmp1 gene transcript in lung [1]: down-regulated
Frzb gene transcript in lung [1]: down-regulated

— patent publication US12012636B2, “Pulmonary hypertension biomarker” (NOVARTIS AG, priority 2014, dated 2024)
